Measurements: patent publication US10835513B2, “Methods and treatments for the learning and memory deficits associated with Noonan syndrome” (The Regents of the University of California, priority 2013, dated 2020)

Experiments:
[1] = tested on: hippocampal slices from the AAV-PTPN11^D61G-infected mice; experiment: 5 TBS-induced CA1 Schaffer collateral LTP, extracellular field recordings, bath-applied SL327; format: cell-based; conditions: SL327 1 μM applied 1 hr before LTP induction and kept in bath
Excerpt: FIG. 3 are graphs showing that PTPN11^D61G overexpression induces learning and memory and LTP deficits that can be reversed by MEK inhibition. Panel a) AAV5-PTPN11^D61G infection results in overexpression of SHP2^D61G. […] Panel b) PTPN11^D61G overexpression increases basal Erk activity (phospho-Erk level) and prevents further Eric activation in response to TBS. Left, Representative immunoblot showing p-Erk (upper) and total Eric (lower) in PTPN11^D61G-expressing slices and GFP-expressing slices. Slices were prepared 1 hr after TBS. […] Panels c and d) MEK inhibitor SL327 (CAS 305350-87-2) reverses spatial memory deficits in PTPN11^D61G-overexpressing mice. […]
For extracellular recordings of field excitatory postsynaptic potentials (fEPSP), sagittal slices (400 μm) were prepared with a vibratome (VT1000S, Leica) in ice-cold artificial cerebrospinal fluid (ACSF). […] Recording was performed in a submerged chamber perfused with ACSF (32° C.). fEPSPs were recorded with platinum-iridium electrodes placed in the CA1 stratum radiatum. […] Baseline responses were measured with stimulation (0.017 Hz, 0.1 ms pulse duration) at an intensity (typically 20-30 μA) that evoked a response that was approximately one third of the maximum evoked response. […] Initial fEPSP slopes were measured and normalized to the average of baseline (Clampfit 10.2).

[2] = tested on: AAV-PTPN11^D61G-expressing mice; experiment: Morris water maze (hidden platform, probe trial) in AAV-PTPN11^D61G-expressing mice treated with SL327; format: in vivo; conditions: for proximity to the target platform, probe trial: SL327 32 mg/kg intraperitoneal
Description: To test whether reducing Erk activity could reverse the memory deficit in AAV-PTPN11^D61G-expressing mice, we treated these mice with the MEK inhibitor SL327 or vehicle daily, 30 min before training.
SL327 (Tocris) was dissolved in DMSO (16 mg/ml) and was injected intraperitoneally once daily, 30 min before the water maze experiment at a dose of 32 mg/kg. The volume of a single injection was under 80 μl. Lovastatin (Mevinolin, Sigma) was prepared as previously described^21. Briefly, lovastatin was dissolved in ethanol (final concentration of 8%) and 1N NaOH was added to convert mevinolin to the sodium salt. The pH of the final solution (4 mg/ml) was adjusted to 7.5 with HCl. The Vehicle solution was prepared with the same procedure. Lovastatin was administered daily (subcutaneous injection, 10 mg/kg) for 3 days before the first training day of the water maze and 6 hr before training every day thereafter.
The coding sequence of human PTPN11 with or without the D61G mutation was subcloned into the HindIII-NsiI site of the AAV expression vector pSOFF. The resultant vector expresses mutant PTPN11 under the synthetic CBA promoter (CMV enhancer and chicken beta-actin promoter). Recombinant virus (rAAV5) was purified as previously described^32. Briefly, an iodixanol gradient purification was performed followed by ion exchange chromatography step which results in a 99% pure vector preparation as judged by silver stained-SDS acrylamide gel fractionation. After the chromatography, the buffer was exchanged and the virus was concentrated in Ringer's solution using a Biomax 100 K concentrator (Millipore). Vector titers were determined by Real Time PCR. Typical titers were 3.09×10^12 genome copies/ml. rAAV5-GFP expressing only GFP was used as a control. […]
In the hidden platform-version of Morris water maze, mice were trained with two blocks of 2 trials (ITI=1 min) spaced about 45 min apart. […] Memory was assessed in probe trials that were given after completion of training as described in the main text. […] Data were acquired and analyzed using WaterMaze software (Actimetrics).

**Q.** For `N#C/C(=C(/N)Sc1ccc(N)cc1)c1ccccc1C(F)(F)F` [SL327], which “Average % fEPSP changes (last 10 minutes of recording), 5 TBS-induced LTP” value ([1]; GFP slices) is on record?
**A.** 146.2±4.37%

**Q.** What about the “Average % fEPSP changes (last 10 minutes of recording), 5 TBS-induced LTP” value ([1]; PTPN11^D61G slices) of the same compound?
**A.** 146.1±4.36%

**Q.** What about the “proximity to the target platform, probe trial” value ([2]; GFP control group) of the same compound?
**A.** 43.75±1.45 cm

**Q.** What about the “proximity to the target platform, probe trial” value ([2]; PTPN11^D61G group) of the same compound?
**A.** 45.52±2.14 cm

**Q.** And the “time spent in the target quadrant, probe trial” value ([2]; PTPN11^D61G-expressing mice, SL327 32 mg/kg intraperitoneal daily, 30 min before training)?
**A.** 37.25±3.50%
